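1) Cells in 96-well plates. 2) Compound, 48 h, 5 concentrations. 3) Linear interpolation between surrounding doses. 4) Unreached endpoint = highest concentration. The concentration for 50% growth inhibition is given as GI50.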 The source made the active and inactive calls. Rule as the data show it: active = GI50 up to about 1.1 µM and inactive = higher.
Tests used:
Assay in all cases: inhibition of tumour cell growth, NCI panel, 48 h
[1] = test system: NCI/ADR-RES
[2] = test system: HCT-15
[3] = test system: MCF7
[4] = test system: NCI-H460
[5] = test system: EKVX
[6] = test system: KM12
[7] = test system: Malme-3M
[8] = test system: T47D
[9] = test system: SF-268
[10] = test system: NCI-H23
[11] = test system: 786-0
[12] = test system: DU-145
[13] = test system: HT-29
[14] = test system: ACHN
[15] = test system: SK-MEL-5
[16] = test system: COLO 205
[17] = test system: A549
[18] = test system: NCI-H226
[19] = test system: SF-539
[20] = test system: MDA-N

Measured: GI50

COc1cc2nc(-c3cccs3)nc(Cl)c2cc1OC
inactive: [1] > 100 µM | [3] 23.4 µM | [4] > 100 µM | [5] 18.6 µM | [6] > 100 µM | [7] > 100 µM | [8] > 100 µM | [9] > 100 µM | [10] > 100 µM | [11] > 100 µM | [12] > 100 µM | [13] 61.7 µM | [14] > 100 µM | [15] 12 µM | [16] > 100 µM | [17] > 100 µM | [18] > 100 µM | [19] > 100 µM
> 100 µM: [2]

COC(=O)C1=CC2C(=O)c3ccccc3C1(c1ccccc1)N2C1CCCCC1 (stereo unspecified)
inactive: [1] 27.9 µM | [3] 15.6 µM | [4] 14.8 µM | [5] 34.9 µM | [6] 14.3 µM | [7] 22.6 µM | [9] 27.2 µM | [10] 18.7 µM | [11] > 100 µM | [20] 23.7 µM | [12] 27 µM | [13] 14.8 µM | [14] 16.2 µM | [15] 10.1 µM | [16] 13.1 µM | [17] 20 µM | [18] 24.7 µM | [19] 20.6 µM
27 µM: [2]

N#CC1C(=O)NC23CCCCC2C1c1ccccc1O3 (stereo unspecified)
> 100 µM: [2]
inactive: [1] > 100 µM | [3] > 100 µM | [4] > 100 µM | [5] > 100 µM | [6] > 100 µM | [7] > 100 µM | [9] 2.1 µM | [10] > 100 µM | [11] > 100 µM | [20] > 100 µM | [12] > 100 µM | [13] > 100 µM | [14] > 100 µM | [15] > 100 µM | [16] > 100 µM | [17] > 100 µM | [18] > 100 µM

Cc1c2cccc-2ccc2c3ccccc3n(C(=O)c3ccc(Cl)cc3)c12
inactive: [1] > 100 µM | [4] > 89.7 µM | [5] 34.1 µM | [6] 26.7 µM | [7] > 100 µM | [8] 1.39 µM | [9] > 100 µM | [10] > 100 µM | [11] > 100 µM | [12] > 100 µM | [13] > 76.7 µM | [14] > 100 µM | [15] > 100 µM | [16] 46.7 µM | [17] > 100 µM | [18] > 100 µM | [19] > 100 µM
active: [3] 0.479 µM
10.6 µM: [2]

C=C1CC/C=C(/C(=O)O)CC[C@H]2[C@@H]1CC2(C)C
inactive: [3] > 100 µM | [4] > 100 µM | [5] > 100 µM | [6] > 100 µM | [7] > 100 µM | [8] > 100 µM | [9] > 100 µM | [10] > 100 µM | [11] > 100 µM | [20] > 100 µM | [12] > 100 µM | [13] > 100 µM | [14] > 100 µM | [15] > 100 µM | [16] > 100 µM | [17] > 100 µM | [18] > 100 µM | [19] > 100 µM
> 100 µM: [2]

O=C(Nc1ccccc1Br)c1cccc([N+](=O)[O-])c1O
inactive: [4] 4.6 µM | [5] 3.04 µM | [6] 4.26 µM | [7] 2.48 µM | [9] 4.47 µM | [10] 2.5 µM | [11] 3.99 µM | [13] 4.73 µM | [14] 3.67 µM | [15] 2.16 µM | [16] 3.66 µM | [17] 3.37 µM | [18] 3.3 µM | [19] 5.61 µM
4.6 µM: [2]

Cc1c(Cl)ccc2c1NC(=O)C2(O)C1Cc2ccccc2C1=O (stereo unspecified)
> 100 µM: [2]
inactive: [4] > 100 µM | [5] > 100 µM | [6] > 100 µM | [7] > 100 µM | [9] > 100 µM | [10] > 100 µM | [11] 41.3 µM | [13] > 100 µM | [14] > 100 µM | [15] > 100 µM | [16] > 100 µM | [17] > 100 µM | [18] > 100 µM | [19] > 100 µM

Brc1ccc(/N=c2/nc3ccccn3n3nc(-c4ccccc4)cc23)cc1
30.5 µM: [2]
inactive: [4] 45.1 µM | [5] 47.6 µM | [6] 39.9 µM | [7] 4.34 µM | [9] 41.6 µM | [10] 55.3 µM | [11] 19.9 µM | [13] 75.5 µM | [14] 26.2 µM | [15] > 100 µM | [16] > 100 µM | [17] 56.5 µM | [18] 45.2 µM | [19] 28.3 µM

Nc1cc2[nH]c(=O)c3cc(Cl)ccc3c2cc1Cl
inactive: [1] 13.3 µM | [4] 5 µM | [5] 2.52 µM | [6] 15.1 µM | [7] 14.7 µM | [8] 12.3 µM | [9] 11.3 µM | [10] 15.8 µM | [11] 14.8 µM | [12] 12 µM | [13] 22.3 µM | [14] 6.59 µM | [15] 12.1 µM | [16] 43.9 µM | [17] 12.9 µM | [19] 12.2 µM
8.17 µM: [2]
active: [3] 0.149 µM | [18] 0.0649 µM

CCCO/S(=N\S(=O)(=O)c1ccccc1)c1ccccc1[N+](=O)[O-] (stereo unspecified)
inactive: [4] > 100 µM | [5] > 100 µM | [6] > 100 µM | [7] > 100 µM | [9] > 100 µM | [10] > 100 µM | [11] > 100 µM | [13] > 100 µM | [14] > 100 µM | [15] > 100 µM | [16] > 100 µM | [17] > 100 µM | [18] > 100 µM | [19] > 100 µM
> 100 µM: [2]

COc1ccc2[nH]c3c(O)nncc3c2c1
> 100 µM: [2]
inactive: [4] > 100 µM | [5] 8.45 µM | [6] > 100 µM | [7] > 100 µM | [9] > 100 µM | [10] > 100 µM | [11] 90.8 µM | [13] > 100 µM | [14] > 100 µM | [15] > 100 µM | [16] > 100 µM | [17] > 100 µM | [18] > 100 µM | [19] > 100 µM

COc1ccc(N[S+]([O-])c2ccc(-c3ccccc3)cc2)cc1 (stereo unspecified)
> 100 µM: [2]
inactive: [1] 55 µM | [3] > 100 µM | [4] > 100 µM | [5] > 100 µM | [6] 70.3 µM | [7] > 100 µM | [9] 30.9 µM | [10] 46 µM | [11] > 10 µM | [20] 97.7 µM | [12] > 100 µM | [13] > 100 µM | [14] > 100 µM | [15] > 100 µM | [16] > 100 µM | [17] > 100 µM | [18] > 100 µM | [19] > 100 µM

O=C(NCCCCCCNC(=O)c1cccc2ccccc12)c1cccc2ccccc12
inactive: [4] 42.5 µM | [5] 20.5 µM | [6] > 100 µM | [7] 33.3 µM | [9] 10.3 µM | [10] 31.5 µM | [11] 23.7 µM | [13] > 100 µM | [14] 31.4 µM | [15] > 100 µM | [16] 1.85 µM | [17] 35.4 µM | [18] 17.8 µM | [19] 11.8 µM
> 100 µM: [2]

CC(C)(C)c1cc(CCC(=O)Nc2ccc(Cl)cc2)nc(S)n1
> 100 µM: [2]
inactive: [4] > 100 µM | [5] > 100 µM | [6] > 100 µM | [7] > 100 µM | [9] > 100 µM | [10] > 100 µM | [11] > 100 µM | [13] > 100 µM | [14] > 100 µM | [15] > 100 µM | [16] > 100 µM | [17] > 100 µM | [18] > 100 µM | [19] > 100 µM

O=[N+]([O-])c1ccc2c(c1)OCCOCCOc1ccc([N+](=O)[O-])cc1OCCOCCO2
inactive: [4] > 100 µM | [5] > 100 µM | [6] > 100 µM | [7] > 100 µM | [9] > 100 µM | [10] > 100 µM | [11] > 100 µM | [13] > 100 µM | [14] > 100 µM | [15] > 100 µM | [16] > 100 µM | [17] > 100 µM | [18] > 100 µM | [19] > 100 µM
> 100 µM: [2]

CN(c1ccccc1)c1cc2ccccc2nn1
> 100 µM: [2]
inactive: [4] > 100 µM | [5] 65.8 µM | [6] > 100 µM | [7] 87.1 µM | [9] > 100 µM | [10] > 100 µM | [11] > 100 µM | [13] > 100 µM | [14] 74 µM | [15] 43.2 µM | [16] > 100 µM | [17] > 100 µM | [18] > 100 µM | [19] > 100 µM

Cc1ccc(O)c(-c2csc(NCN3CCN(CNc4nc(-c5cc(C)ccc5O)cs4)CC3)n2)c1
> 100 µM: [2]
inactive: [1] > 100 µM | [3] > 100 µM | [4] > 100 µM | [5] > 100 µM | [6] > 100 µM | [7] > 100 µM | [9] > 100 µM | [10] > 100 µM | [11] > 100 µM | [20] > 100 µM | [12] > 100 µM | [13] > 100 µM | [14] > 100 µM | [15] > 100 µM | [16] > 100 µM | [17] > 100 µM | [18] > 100 µM | [19] > 100 µM
